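Following 48 hours of exposure in 96-well plates, responses at five concentrations were used to interpolate endpoints linearly. Here, GI50 denotes the concentration required for 50% inhibition of growth.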 Activity calls are given as the source filed them. Rule as the data show it: active = GI50 up to about 1.1 µM and inactive = higher.
Legend:
Assay in all cases: inhibition of tumour cell growth, NCI panel, 48 h
CCRF-CEM = system: CCRF-CEM
SF-295 = system: SF-295
HOP-92 = system: HOP-92
SF-268 = system: SF-268
OVCAR-5 = system: OVCAR-5
SNB-19 = system: SNB-19
M14 = system: M14
K562 = system: K562
ACHN = system: ACHN
LOX IMVI = system: LOX IMVI
786-0 = system: 786-0
MOLT-4 = system: MOLT-4
OVCAR-3 = system: OVCAR-3
HCC 2998 = system: HCC 2998
SNB-75 = system: SNB-75
HCT-116 = system: HCT-116

Measured: GI50

C=C1CC2(CCS(=O)(=O)c3ccccc32)OC1=O (stereo not drawn)
inactive: CCRF-CEM 2.24 µM | SF-295 21.1 µM | HOP-92 3.72 µM | SF-268 17.2 µM | OVCAR-5 14.3 µM | SNB-19 10.2 µM | M14 6.62 µM | K562 4.04 µM | ACHN 11.5 µM | LOX IMVI 17.3 µM | 786-0 4.32 µM | MOLT-4 3.49 µM | OVCAR-3 7.52 µM | HCC 2998 21.9 µM

CCN(CC)CCCN(c1cc(OC)cc2nccnc12)S(=O)(=O)c1ccc(C)cc1
inactive: CCRF-CEM 99.1 µM | SF-295 > 100 µM | HOP-92 > 100 µM | SF-268 > 100 µM | OVCAR-5 > 100 µM | SNB-19 > 100 µM | M14 > 100 µM | K562 > 100 µM | ACHN > 100 µM | LOX IMVI > 100 µM | 786-0 > 100 µM | MOLT-4 74.6 µM | SNB-75 37.2 µM | OVCAR-3 > 100 µM | HCC 2998 > 100 µM

CN1N=CSC12C(=O)N(c1ccccc1)C(=O)N2c1ccccc1 (stereo not drawn)
inactive: CCRF-CEM > 100 µM | SF-295 > 100 µM | SF-268 > 100 µM | HCT-116 > 100 µM | OVCAR-5 > 100 µM | SNB-19 > 100 µM | M14 > 100 µM | K562 > 100 µM | ACHN > 100 µM | LOX IMVI > 100 µM | 786-0 > 100 µM | MOLT-4 > 100 µM | SNB-75 > 100 µM | OVCAR-3 > 100 µM | HCC 2998 > 100 µM

FC(F)(F)c1nc(-c2ccccc2)oc1Sc1nnc(Sc2oc(-c3ccccc3)nc2C(F)(F)F)s1
inactive: CCRF-CEM 8.97 µM | SF-295 > 67.1 µM | HOP-92 29.4 µM | SF-268 58.9 µM | HCT-116 > 65.3 µM | OVCAR-5 > 100 µM | SNB-19 > 63.5 µM | M14 14.2 µM | K562 24 µM | ACHN > 82.2 µM | LOX IMVI 10.4 µM | 786-0 28.4 µM | MOLT-4 6.84 µM | SNB-75 37.8 µM | OVCAR-3 > 43.4 µM | HCC 2998 > 78.2 µM

COc1cc(/C=C/c2ccc(Br)cc2)cc(OC)c1OC
inactive: CCRF-CEM 11.8 µM | SF-295 6.73 µM | HOP-92 12.1 µM | SF-268 9.12 µM | HCT-116 4.55 µM | OVCAR-5 16.6 µM | SNB-19 21.1 µM | M14 14.4 µM | K562 3.71 µM | ACHN 18.9 µM | LOX IMVI 14.1 µM | 786-0 19.9 µM | MOLT-4 3.21 µM | SNB-75 8.38 µM | OVCAR-3 7.8 µM | HCC 2998 7.6 µM

CC(=O)OCC1OC(n2ccc(=O)[nH]c2=O)C(OC(C)=O)C(OC(C)=O)C1OC(C)=O (stereo not drawn)
inactive: CCRF-CEM > 100 µM | SF-295 > 100 µM | HOP-92 > 100 µM | SF-268 > 100 µM | HCT-116 > 100 µM | OVCAR-5 > 100 µM | SNB-19 > 100 µM | M14 > 100 µM | K562 > 100 µM | ACHN > 100 µM | LOX IMVI > 100 µM | 786-0 > 100 µM | MOLT-4 > 10 µM | SNB-75 50.6 µM | OVCAR-3 > 100 µM | HCC 2998 > 100 µM

COCCOc1cc(C)cc(/C=C(C)/C=C/C2=C(C)CCCC2(C)C)n1
inactive: SF-295 > 100 µM | HOP-92 38.6 µM | SF-268 > 100 µM | HCT-116 30.7 µM | OVCAR-5 > 100 µM | SNB-19 > 100 µM | M14 94 µM | ACHN 84.3 µM | LOX IMVI 54.8 µM | 786-0 > 100 µM | MOLT-4 13.3 µM | SNB-75 > 100 µM | OVCAR-3 > 100 µM

C[C@]12CCC(=O)C=C1CC[C@@H]1C2CC[C@]2(C)Nc3c(cnn3-c3ccccc3)CC12 (stereo partly drawn)
inactive: CCRF-CEM > 100 µM | SF-295 > 10 µM | HCT-116 > 100 µM | OVCAR-5 > 100 µM | M14 > 100 µM | K562 > 100 µM | ACHN > 100 µM | 786-0 > 100 µM | MOLT-4 > 100 µM | SNB-75 39.1 µM | OVCAR-3 > 10 µM | HCC 2998 > 100 µM

COc1c(C)c(O)c2c(c1C)OC(c1ccccc1)CC2=O (stereo not drawn)
inactive: CCRF-CEM 31.4 µM | SF-295 50.6 µM | HOP-92 29.6 µM | SF-268 56.9 µM | HCT-116 47.8 µM | OVCAR-5 61.8 µM | M14 67.1 µM | K562 35.1 µM | ACHN 51.9 µM | LOX IMVI 46.3 µM | 786-0 89.3 µM | MOLT-4 31.8 µM | SNB-75 65 µM | OVCAR-3 > 100 µM | HCC 2998 56.1 µM

CC1=C2CCCC2C/C(=N/Nc2ccc([N+](=O)[O-])cc2[N+](=O)[O-])CC1 (stereo not drawn)
inactive: SF-295 > 100 µM | HOP-92 > 100 µM | SF-268 > 100 µM | HCT-116 > 100 µM | OVCAR-5 > 100 µM | SNB-19 > 100 µM | M14 > 100 µM | K562 > 100 µM | ACHN > 100 µM | LOX IMVI > 100 µM | 786-0 > 100 µM | MOLT-4 > 100 µM | SNB-75 69.7 µM | OVCAR-3 > 100 µM | HCC 2998 > 100 µM

C=C[C@H]1C=Cc2c(OC)cccc2[C@@H]1COP1(=S)NC(C)C(c2ccccc2)O1 (stereo partly drawn)
inactive: CCRF-CEM 42 µM | SF-295 > 100 µM | SF-268 62.1 µM | HCT-116 52.8 µM | SNB-19 > 100 µM | M14 > 100 µM | K562 37.1 µM | LOX IMVI 17.2 µM | 786-0 > 100 µM | MOLT-4 33.9 µM | SNB-75 > 100 µM | OVCAR-3 > 100 µM | HCC 2998 92 µM

CCOc1ccc(NC(=O)CC2C(=O)Nc3ccccc3S2(=O)=O)cc1 (stereo not drawn)
inactive: SF-295 49.4 µM | HOP-92 13.3 µM | SF-268 42.7 µM | HCT-116 > 100 µM | OVCAR-5 > 100 µM | SNB-19 34.5 µM | K562 > 100 µM | ACHN > 100 µM | LOX IMVI > 100 µM | 786-0 33.7 µM | MOLT-4 > 100 µM | SNB-75 18.1 µM | OVCAR-3 77.1 µM | HCC 2998 > 100 µM

C/C(=N/NC(=O)C[n+]1ccccc1)C(CN(CC(C)C)CC(C)C)C(=O)Nc1ccc(C)cc1C (stereo not drawn)
inactive: CCRF-CEM > 100 µM | HOP-92 43.3 µM | SF-268 > 100 µM | HCT-116 > 100 µM | OVCAR-5 65.5 µM | SNB-19 26.7 µM | M14 > 100 µM | K562 > 100 µM | ACHN 54.5 µM | 786-0 > 100 µM | MOLT-4 > 100 µM | HCC 2998 > 100 µM

O=C1c2cccc3cccc(c23)C(=O)N1CCCN1CCN(CCCN2C(=O)c3cccc4cccc(c34)C2=O)CC1
inactive: CCRF-CEM 32.8 µM | SF-295 > 100 µM | HOP-92 > 100 µM | HCT-116 > 100 µM | OVCAR-5 > 100 µM | SNB-19 > 100 µM | M14 > 100 µM | K562 > 100 µM | ACHN > 100 µM | LOX IMVI > 100 µM | 786-0 > 100 µM | MOLT-4 > 100 µM | SNB-75 > 100 µM | OVCAR-3 > 100 µM | HCC 2998 > 100 µM

COc1ccc(/C=C/C(=O)c2sc(NC(=S)NC(=O)c3ccccc3F)nc2C)cc1OC
inactive: CCRF-CEM 35.6 µM | SF-295 > 100 µM | HOP-92 98.9 µM | SF-268 > 100 µM | OVCAR-5 > 100 µM | SNB-19 > 100 µM | K562 > 100 µM | ACHN > 100 µM | LOX IMVI > 100 µM | 786-0 > 100 µM | MOLT-4 65.6 µM | SNB-75 26.5 µM | OVCAR-3 > 100 µM | HCC 2998 > 100 µM

O=C(Nc1ccccc1[N+](=O)[O-])c1ccccc1
inactive: SF-295 > 100 µM | HOP-92 65.9 µM | SF-268 > 100 µM | HCT-116 > 100 µM | OVCAR-5 > 100 µM | SNB-19 > 100 µM | M14 > 100 µM | K562 > 100 µM | ACHN > 100 µM | LOX IMVI 95.9 µM | 786-0 > 100 µM | MOLT-4 53 µM | SNB-75 65.3 µM | OVCAR-3 > 100 µM | HCC 2998 > 100 µM

COc1ccc(N(C)CN(C)c2nc(N(C)C)nc(N(C)C)n2)cc1
inactive: CCRF-CEM > 100 µM | SF-295 > 100 µM | HOP-92 > 100 µM | SF-268 > 100 µM | HCT-116 > 100 µM | OVCAR-5 > 100 µM | SNB-19 > 100 µM | M14 > 100 µM | K562 > 100 µM | ACHN > 100 µM | LOX IMVI > 100 µM | 786-0 > 100 µM | MOLT-4 > 100 µM | SNB-75 > 100 µM | OVCAR-3 > 100 µM

COc1nc(C(=O)O)c(Cl)c(OC)c1Cl
inactive: CCRF-CEM > 100 µM | SF-295 > 100 µM | HOP-92 > 100 µM | SF-268 > 100 µM | HCT-116 > 100 µM | OVCAR-5 > 100 µM | SNB-19 > 100 µM | M14 > 100 µM | K562 > 10 µM | ACHN > 100 µM | 786-0 > 100 µM | MOLT-4 > 100 µM | OVCAR-3 > 100 µM | HCC 2998 > 100 µM

COC(=O)[C@]1(C)CCC[C@@]2(C)C1CCC1=C[C@@]3(C(C)C)CC[C@]12OO3 (stereo partly drawn)
inactive: CCRF-CEM 17.9 µM | SF-295 25.8 µM | SF-268 24.7 µM | HCT-116 25.2 µM | OVCAR-5 22.4 µM | SNB-19 58.2 µM | M14 22 µM | K562 25.9 µM | ACHN 36.4 µM | LOX IMVI 24.7 µM | 786-0 20.4 µM | MOLT-4 25.8 µM | OVCAR-3 27.8 µM | HCC 2998 31.3 µM
